Legend:
[1] = human, in vivo
Text: In two-compartment modeling, there is a central compartment and a peripheral compartment. […] The peripheral compartment contains tissues, including fat and bone, which uptake the drug at a slower rate than the central compartment.
where c1 in [mcg·L^−1] is the drug concentration in the central compartment, c2 in [mcg·L^−1] is the drug concentration in the peripheral compartment, kel in [min^−1] is the elimination rate constant, k12 in [min^−1] is the rate constant of distribution from the central compartment to the peripheral compartment, k21 in [min^−1] is the rate constant of distribution from the peripheral compartment to the central compartment, V1 in [L] is the volume of distribution of the central or first compartment, and u in [mcg·min^−1] represents the input infusion rate of a drug into the system. The constants defined in this model correspond to mass flow rate constants, which are traditionally estimated from empirical PK studies. As such, the formulation of Eq. 1.3 represents the dynamics of drug concentrations in the body in terms of mass flow rate constants. […] This model is time-invariant.
The volume in the central compartment, given in 0.32±0.19 in [L·kg^−1], is converted to
[formula] in [L] by multiplying by 85.41 in [kg], the average weight of the patient cohort. The following values are also derived:
[formula] […] It should be appreciated again these empirical values are mass flow rate constants.
From these parameters, k12, k21, and kel can be derived using the following,

[2] = two-compartment model of NI; mean ± spread; cited from earlier work

COC(=O)C1=C(C)NC(C)=C(C(=O)OCCN(C)Cc2ccccc2)C1c1cccc([N+](=O)[O-])c1 (stereo not drawn) [NI, nicardipine]
k12, rate constant of distribution from the central compartment to the peripheral compartment [1]: ≈ 0.0183 min^−1
k21, rate constant of distribution from the peripheral compartment to the central compartment [1]: ≈ 0.0019 min^−1
kel, elimination rate constant [1]: ≈ 0.0223 min^−1
V1, the volume of distribution in the central compartment [2]: 0.32 ± 0.19 L/kg
t1/2α, the distribution half-life [2]: 0.278 ± 0.18 h
t1/2β, the elimination half-life [2]: 11.49 ± 5.76 h

Source: patent US12653459B2, “Systems, devices, and methods for blood pressure control” (Massachusetts Institute of Technology, priority 2022, dated 2026)
